This assay relates to AM fungi (mixed INVAM inoculum). Description: Pot study: AM fungal spore production in steamed ML soil/sand with INVAM inoculum, planted or unplanted. Format: in vivo. The note with it: for AM Fungal Spores per 100 g soil: 80 ppm treatment P, end of study at 66 days, start 408 spores per 100 g; for increase in spore population from the start of the study: planted with yellow sweet clover; for increase in spore population from the start of the study / increase in spore population at 66 days over the levels at time 0: 66 days vs 408 spores per 100 g at time 0. The text has this: This Example is an un-replicated study to examine whether PO3^−3 (phosphite) impacts spore production and infection rate of AM fungi. The fungi were a mixed inoculum source from the University of West Virginia (UWV). UWV holds and maintains the International Culture Collection of (Vesicular) Arbuscular Mycorrhizal Fungi (INVAM). The plant used was yellow blossom sweet clover (Melilotus officinalis). All pots were inoculated, but only half were planted. Each Experimental unit was a 20 cm pot. Substrate for the units were a soil, sand, and inoculum mixture.
A known AM fungal inoculum was obtained from The International Culture Collection of (Vesicular) Arbuscular Mycorrhizae (invam.wvu.edu, Director Matt Kasson) maintained at the University of West Virginia in Morgantown, WV, US. A mixed culture of four AM fungal species was ordered. The mixture contained 250 ml of soil inoculum of each species. The total weight the entire mixed sample was 1345 grams and thus a bulk density of the sample of 1.345 g/ml. The material received contained the following species: Claroideoglomus etunicatum., Accession number AZ 201C (initially described by Becker W. N. and Gerdemann J. W., Mycotaxon, 6:29, 1977, as Glomus etunicatum.), spores were orange to red-brown, globose, subglobose; 60-160 μm diameter; mean 129 μm (n=120); Rhizophagus clarus, Accession number AZ 151D (initially described by Schenck, N. Mycologia, 71:182, 1979, as Glomus clarum.), spores are from white to yellow brown with many pale yellow to pale yellow brown, 100 to 260 μm diameter, mean 182 μm (n=120); Rhizophagus intraradices, Accession number AZ 123 (initially described by Schenck, N. Mycologia, 74:78, 1982, as Glomus intraradices), spores were white, pale cream, to yellow, brown, sometimes with a green hint, globose, subglobose, irregular. 40 to 140 μm diameter, mean 93.3 (n=170); and Septoglomus deserticola, Accession number CA 113 (initially described by Trappe J. Bluss and Menge J., 1984, Mycotaxon, 20:123, 1984, as Glomus deserticola), spores are orange-brown to dark red brown, most are reddish brown, globose to subglobose, sometimes irregular, 60 to 140 μm diameter.
The present example was designed as a pot experiment where each pot was a treatment, the treatments being untreated controls, units treated with phosphate, and units treated with phosphite. All pots were a mixture of steamed ML soil, sand, and inoculum. Control units (pots) received no other treatment. Phosphate pots were treated with K2HPO4. Phosphite pots were treated with an equivalent molarity (concentration) of P as K2HPO3.
Half of the pots (a control, phosphate, and phosphite treatments) were planted with yellow sweet clover seed. The other half of the pots (also a control, phosphate, and phosphite treatment) were not planted with any plants.
Phosphate and phosphite were added to the soil materials such that the phosphorus in each would constitute 80 mg per kg of soil (Table 6). This is more than was added to the field experimental plots described in Example 3. However, the results of that experiment (Example 4) did show a response of the AM fungi to phosphite. In Example 4, phosphorous either as phosphate or phosphite, was added at 61.53 ppm. In Example 4, there was no apparent inhibition of infection or spore production by addition of phosphorus. The level of P was raised to 80 mg per kg in this example to accentuate the impact of added P on the AM fungi. Each pot described in Table 6 contained 3.022.5 g of soil material (soil plus sand and inoculum).
The various treatment substrates, i.e., soil, sand, and inoculum, were mixed in batches. The control batch was established and mixed for the control treatments. Likewise, the phosphate and phosphite batches were mixed, respectively, for all phosphate and phosphite treatments. The treatments salts (K2HPO4 and K2HPO3) were added as 400 ml aqueous solution (chemical in distilled water to 400 ml). […]

Setting [1] is: YBSC (yellow sweet clover) plants.

On to `OP(O)O` [PO3, dipotassium phosphite], for which the “increase in spore population from the start of the study” value is listed as 1,127%. In addition, the “AM Fungal Spores per 100 g soil” value under setting [1] is 4,598 per 100 g soil. Moreover, where the note is “no plants”, the “AM Fungal Spores per 100 g soil” value is recorded as 7,301 per 100 g soil. For the setting “planted, 66 days”, the “mature brownish reddish spores” value was 3,480 per 100 g soil and the “small, immature spores” value was 217 per 100 g soil. Also, under “unplanted, 66 days”, the “light colored to white spores” value is 1,429 spores per 100 g soil; the “mature brownish reddish spores” value is listed as 4,287 per 100 g soil; the “small, immature spores” value is 1,585 per 100 g soil. The “increase in spore population at 66 days over the levels at time 0” value (unplanted) is reported as 1,789%.
Take `O=P([O-])([O-])O.[K+].[K+]` [PO4, dipotassium phosphate]: the “increase in spore population from the start of the study” value is recorded as 1,751%. Besides, under setting [1], the “AM Fungal Spores per 100 g soil” value was 7,146 per 100 g soil. For the same molecule, for the setting “no plants”, the “AM Fungal Spores per 100 g soil” value is 5,220 per 100 g soil. Moreover, for the setting “planted, 66 days”, the “mature brownish reddish spores” value is given as 2,827 per 100 g soil and the “small, immature spores” value is listed as 3,604 per 100 g soil. Where the note is “unplanted, 66 days”, the “mature brownish reddish spores” value is 2,237 per 100 g soil and the “small, immature spores” value is 2,548 per 100 g soil. The “increase in spore population at 66 days over the levels at time 0” value (unplanted) was 1,279%.
